Experimental data as given in PubChem BioAssay AID180 (DTP/NCI, 2004).
Values joined by “and” are separate entries in the source; they are usually repeats but may differ in a detail not shown here. Identical values can stand only once.

Tested on: BDF1 mice, Adenocarcinoma 755 s.c., tumor weight T/C
Assay: NCI In Vivo Anticancer Drug Screen. Data for tumor model Adenocarcinoma 755 (subcutaneous) in B6D2F1 (BDF1) mice
Details: endpoint: mean tumor weight, higher = larger tumour
Protocol: The antitumor activity of compounds was measured in mice bearing transplantable tumors. Survival or tumor size were measured and the results are expressed as the measurement made in the treated group (T) divided by the measurement made in the vehicle treated control group (C). The tumor model used in this assay is Adenocarcinoma 755 (subcutaneous) in B6D2F1 (BDF1) mice

[1] = dose: 15.0 mg/kg/injection, schedule: Q01DX011 (ip), vehicle: other
[2] = dose: 25.0 mg/kg/injection, schedule: Q01DX011 (ip), vehicle: carboxymethylcellulose (CMC)
[3] = dose: 50.0 mg/kg/injection, schedule: Q01DX011 (ip), vehicle: carboxymethylcellulose (CMC)
[4] = dose: 25.0 mg/kg/injection, schedule: Q01DX011 (ip), vehicle: saline
[5] = dose: 75.0 mg/kg/injection, schedule: Q01DX011 (ip), vehicle: saline
[6] = dose: 30.0 mg/kg/injection, schedule: Q01DX011 (ip), vehicle: carboxymethylcellulose (CMC)
[7] = dose: 60.0 mg/kg/injection, schedule: Q01DX011 (ip), vehicle: carboxymethylcellulose (CMC)
[8] = dose: 120.0 mg/kg/injection, schedule: Q01DX011 (ip), vehicle: carboxymethylcellulose (CMC)
[9] = dose: 50.0 mg/kg/injection, schedule: Q01DX011 (ip), vehicle: saline

## ClCCn1cnc2c(SCc3ccccc3)ncnc21
dose: 0.5 mg/kg/injection, schedule: Q01DX011 (ip), vehicle: other
  T/C: 115 % of control
dose: 0.5 mg/kg/injection, schedule: Q01DX011 (oral), vehicle: other
  T/C: 98 % of control
dose: 1.0 mg/kg/injection, schedule: Q01DX011 (ip), vehicle: other
  T/C: 72 % of control
dose: 1.0 mg/kg/injection, schedule: Q01DX011 (oral), vehicle: other
  T/C: 79 % of control
dose: 2.0 mg/kg/injection, schedule: Q01DX011 (ip), vehicle: other
  T/C: 67 % of control
dose: 2.0 mg/kg/injection, schedule: Q01DX011 (oral), vehicle: other
  T/C: 72 % of control
dose: 4.0 mg/kg/injection, schedule: Q01DX011 (ip), vehicle: other
  T/C: 36 % of control
dose: 4.0 mg/kg/injection, schedule: Q01DX011 (oral), vehicle: other
  T/C: 40 % of control
dose: 8.0 mg/kg/injection, schedule: Q01DX011 (ip), vehicle: other
  T/C: 3 % of control
[1]
  T/C: 3 % of control
dose: 15.0 mg/kg/injection, schedule: Q01DX011 (oral), vehicle: other
  T/C: 7 % of control
[2]
  T/C: 1 % of control
[3]
  T/C: 3 % of control

## CSc1nc(N)c(NC=O)c(=O)n1C
[4]
  T/C: 118 % of control
[5]
  T/C: 66 % of control

## Cn1c(=O)c2c(nc(N/N=C/C(Cl)Cl)n2C)n(C)c1=O
dose: 2.8 mg/kg/injection, schedule: Q01DX011 (ip), vehicle: methylcellulose (MC)
  T/C: 79 % of control
dose: 8.3 mg/kg/injection, schedule: Q01DX011 (ip), vehicle: methylcellulose (MC)
  T/C: 71 % of control

## O=C1C=C(c2ccccc2)C(=O)C=C1c1ccccc1
dose: 12.5 mg/kg/injection, schedule: Q01DX011 (ip), vehicle: other
  T/C: 72 % of control
dose: 25.0 mg/kg/injection, schedule: Q01DX011 (ip), vehicle: other
  T/C: 48 % of control

## CC(=O)OCC1OC(n2cnc3c(=O)[nH]c(N)nc32)CC1OC(C)=O (stereo not drawn)
[6]
  T/C: 115 % of control
[7]
  T/C: 95 % of control
[8]
  T/C: 94 % of control
dose: 240.0 mg/kg/injection, schedule: Q01DX011 (ip), vehicle: carboxymethylcellulose (CMC)
  T/C: 115 % of control

## O=NN1CCN(N=O)CC1
dose: 6.21 mg/kg/injection, schedule: Q01DX011 (ip), vehicle: carboxymethylcellulose (CMC)
  T/C: 76 % of control
dose: 7.36 mg/kg/injection, schedule: Q01DX011 (ip), vehicle: carboxymethylcellulose (CMC)
  T/C: 69 % of control
dose: 11.75 mg/kg/injection, schedule: Q01DX011 (ip), vehicle: carboxymethylcellulose (CMC)
  T/C: 98 % of control and 78 % of control
dose: 12.43 mg/kg/injection, schedule: Q01DX011 (ip), vehicle: carboxymethylcellulose (CMC)
  T/C: 85 % of control
dose: 14.72 mg/kg/injection, schedule: Q01DX011 (ip), vehicle: carboxymethylcellulose (CMC)
  T/C: 101 % of control
dose: 18.8 mg/kg/injection, schedule: Q01DX011 (ip), vehicle: carboxymethylcellulose (CMC)
  T/C: 157 % of control
dose: 23.5 mg/kg/injection, schedule: Q01DX011 (ip), vehicle: carboxymethylcellulose (CMC)
  T/C: 69 % of control and 83 % of control
dose: 23.56 mg/kg/injection, schedule: Q01DX011 (ip), vehicle: carboxymethylcellulose (CMC)
  T/C: 88 % of control
dose: 24.85 mg/kg/injection, schedule: Q01DX011 (ip), vehicle: carboxymethylcellulose (CMC)
  T/C: 56 % of control
dose: 29.45 mg/kg/injection, schedule: Q01DX011 (ip), vehicle: carboxymethylcellulose (CMC)
  T/C: 99 % of control and 100 % of control
dose: 31.33 mg/kg/injection, schedule: Q01DX011 (ip), vehicle: carboxymethylcellulose (CMC)
  T/C: 57 % of control
dose: 39.26 mg/kg/injection, schedule: Q01DX011 (ip), vehicle: carboxymethylcellulose (CMC)
  T/C: 67 % of control
dose: 40.0 mg/kg/injection, schedule: Q01DX011 (ip), vehicle: carboxymethylcellulose (CMC)
  T/C: 99 % of control
dose: 45.0 mg/kg/injection, schedule: Q01DX011 (ip), vehicle: carboxymethylcellulose (CMC)
  T/C: 100 % of control
[3]
  T/C: 86 % of control
dose: 55.0 mg/kg/injection, schedule: Q01DX011 (ip), vehicle: carboxymethylcellulose (CMC)
  T/C: 102 % of control

## O=C1N(Br)C(=O)C(c2ccc(Cl)cc2)(c2ccc(Cl)cc2)N1Br
dose: 1.7 mg/kg/injection, schedule: Q01DX011 (ip), vehicle: carboxymethylcellulose (CMC)
  T/C: 42 % of control
dose: 3.5 mg/kg/injection, schedule: Q01DX011 (ip), vehicle: carboxymethylcellulose (CMC)
  T/C: 76 % of control
dose: 7.0 mg/kg/injection, schedule: Q01DX011 (ip), vehicle: carboxymethylcellulose (CMC)
  T/C: 91 % of control
dose: 14.0 mg/kg/injection, schedule: Q01DX011 (ip), vehicle: carboxymethylcellulose (CMC)
  T/C: 35 % of control and 39 % of control and 43 % of control
dose: 28.0 mg/kg/injection, schedule: Q01DX011 (ip), vehicle: carboxymethylcellulose (CMC)
  T/C: 35 % of control and 49 % of control
[6]
  T/C: 22 % of control and 38 % of control
dose: 56.0 mg/kg/injection, schedule: Q01DX011 (ip), vehicle: carboxymethylcellulose (CMC)
  T/C: 20 % of control
[7]
  T/C: 29 % of control and 35 % of control
dose: 112.0 mg/kg/injection, schedule: Q01DX011 (ip), vehicle: carboxymethylcellulose (CMC)
  T/C: 38 % of control
[8]
  T/C: 14 % of control

## CN(C)c1nc(N)nc(Nc2ccc(Br)cc2)c1N=O
dose: 12.5 mg/kg/injection, schedule: Q01DX011 (ip), vehicle: carboxymethylcellulose (CMC)
  T/C: 40 % of control
[2]
  T/C: 51 % of control

## CCN(CC)Cc1nc2c(c(=O)n(C)c(=O)n2C)n1C
dose: 30.0 mg/kg/injection, schedule: Q01DX011 (ip), vehicle: methylcellulose (MC)
  T/C: 93 % of control
dose: 60.0 mg/kg/injection, schedule: Q01DX011 (ip), vehicle: methylcellulose (MC)
  T/C: 54 % of control
dose: 120.0 mg/kg/injection, schedule: Q01DX011 (ip), vehicle: methylcellulose (MC)
  T/C: 40 % of control

## Nc1ncnc(F)c1N
dose: 15.5 mg/kg/injection, schedule: Q01DX011 (ip), vehicle: carboxymethylcellulose (CMC)
  T/C: 106 % of control
[6]
  T/C: 96 % of control
[7]
  T/C: 123 % of control
[8]
  T/C: 89 % of control

## NC(N)=N/N=C/c1c(O)ccc2ccccc12
dose: 12.5 mg/kg/injection, schedule: Q01DX011 (ip), vehicle: saline
  T/C: 77 % of control
[4]
  T/C: 67 % of control
[9]
  T/C: 54 % of control

## Cn1c(=O)c2c(nc(Cl)n2CCl)n(C)c1=O
dose: 25.0 mg/kg/injection, schedule: Q01DX011 (ip), vehicle: methylcellulose (MC)
  T/C: 60 % of control

## CC(=O)NNC(=O)c1ccccn1
dose: 75.0 mg/kg/injection, schedule: Q01DX011 (ip), vehicle: water
  T/C: 68 % of control
dose: 100.0 mg/kg/injection, schedule: Q01DX011 (ip), vehicle: water
  T/C: 37 % of control

## Cn1c(=O)c2[nH]c(/N=N/N3CCN(CCO)CC3)nc2n(C)c1=O
dose: 75.0 mg/kg/injection, schedule: Q01DX011 (ip), vehicle: other
  T/C: 119 % of control
dose: 225.0 mg/kg/injection, schedule: Q01DX011 (ip), vehicle: other
  T/C: 92 % of control

## CCCCN(C)N=Nc1ccc(CCCC(=O)OCC)cc1
[4]
  T/C: 64 % of control
[9]
  T/C: 57 % of control
[5]
  T/C: 50 % of control

## CCCCn1cnc2c(SSc3ncnc4c3ncn4CCCC)ncnc21
dose: 0.5 mg/kg/injection, schedule: Q01DX011 (ip), vehicle: carboxymethylcellulose (CMC)
  T/C: 94 % of control
dose: 1.0 mg/kg/injection, schedule: Q01DX011 (ip), vehicle: carboxymethylcellulose (CMC)
  T/C: 104 % of control
dose: 2.0 mg/kg/injection, schedule: Q01DX011 (ip), vehicle: carboxymethylcellulose (CMC)
  T/C: 101 % of control
dose: 4.0 mg/kg/injection, schedule: Q01DX011 (ip), vehicle: carboxymethylcellulose (CMC)
  T/C: 77 % of control
dose: 7.5 mg/kg/injection, schedule: Q01DX011 (ip), vehicle: other
  T/C: 32 % of control
dose: 8.0 mg/kg/injection, schedule: Q01DX011 (ip), vehicle: carboxymethylcellulose (CMC)
  T/C: 19 % of control
[1]
  T/C: 23 % of control
dose: 16.0 mg/kg/injection, schedule: Q01DX011 (ip), vehicle: carboxymethylcellulose (CMC)
  T/C: 13 % of control
dose: 30.0 mg/kg/injection, schedule: Q01DX011 (ip), vehicle: other
  T/C: 1 % of control
dose: 31.0 mg/kg/injection, schedule: Q01DX011 (ip), vehicle: carboxymethylcellulose (CMC)
  T/C: 6 % of control
dose: 62.0 mg/kg/injection, schedule: Q01DX011 (ip), vehicle: carboxymethylcellulose (CMC)
  T/C: 5 % of control

## CN(C)S(=O)(=O)c1nc2nc[nH]c2c(=O)[nH]1
[2]
  T/C: 70 % of control
dose: 75.0 mg/kg/injection, schedule: Q01DX011 (ip), vehicle: carboxymethylcellulose (CMC)
  T/C: 66 % of control
dose: 225.0 mg/kg/injection, schedule: Q01DX011 (ip), vehicle: carboxymethylcellulose (CMC)
  T/C: 85 % of control
